Measured values: patent EP4799701A2, “PYRIMID-2-YL-PYRAZOLE COMPOUNDS AS IRAK INHIBITORS” (Rigel Pharmaceuticals, Inc., priority 2022, dated 2023)
Values joined by “and” are separate entries in the source; they are usually repeats but may differ in a detail not shown here. Identical values can stand only once.

Tests used:
TLR7-induced TNF-α = assay: TNF-α in human monocyte-derived dendritic cells (gardiquimod); format: cell-based; conditions: human primary dendritic cells (DC); result in words
Description: After 2 hours, the media including floating cells was carefully removed and 12 ml of fresh RPMI media (10% FBS) containing GM-CSF (100 ng/ml) and IL-4 (20 ng/ml) were added to the adherent monocytes.
The differentiated dendritic cells (DC) were harvested by centrifugation (1200 rpm/5 min).

TLR4-induced IL-23 = assay: IL23-p19 ELISA, dendritic cells (PBMC-derived), LPS stimulated; format: cell-based; conditions: human primary dendritic cells (DC); result in words
Description: Compound Screening Using DC Cells
• Human PBMC cells (All Cells, Cat No. PB002) • RPMI growth media containing 10% FBS • IFNγ (Peprotech, Cat No. 300-02) • GMCSF (Peprotech, Cat No. 300-03) and IL4 (Peprotech Cat No. 200-04) • White clear bottom 96 well plates (Fisher, Cat No. 07-200-587, Corning #3903) • LPS (Make 2.5 mg/ml Stock in PBS) from Sigma Aldrich (Cat No. L2018-5MG) • Cell Titer Glo reagent (Promega, Cat No. G7573) • Positive controls, IKK2VI inhibitor (Calbiochem, Cat No. 401483)
Human PBMC cells (400 million) obtained from the vendor were transferred into a T-175 flask containing 15 ml RPMI media (10% FBS) and incubate for 2 hours at 37 °C. […]
155 µl of the supernatant was harvested from each well carefully (without the tip touching the bottom of the well) and to the remaining 50 µl / well of the cell culture plate was added 50 µl of Cell Titer Glo reagent. The mixture was incubated for 1-2 minutes on a shaker and the plate was read for luminescence intensity to determine the compound cytotoxicity. […]
After 45 minutes, the plates were washed with TBST 4X and 100 ul / well Super Signal ELISA Pico Chemiluminescent Substrate from Pierce (3.5 ml A + 3.5 ml B + 3.5 ml MQ water) was added. The plates were shaken for 1-2 minutes then read on a plate reader. […]

TLR4-dependent = TLR4-dependent cytokine production in mouse macrophages; format: cell-based; conditions: result in words
[1] = Rat brain homogenate binding, equilibrium dialysis (RED); format: in vitro ADME
Description: Brain and plasma drug binding were performed by equilibrium dialysis using the Rapid Equilibrium Dialysis (RED) device. Briefly, 300 µL of plasma or brain homogenate (1 brain /3 buffer) containing drug (5 µM) was equilibrated (4-18 h) against 500 µL of buffered saline. After incubation, the concentration of drug in plasma/brain homogenate and buffer was determined by LC-MS/MS.
Two runs of rat brain homogenate binding with I-1 compared to Comparison-1. I-1 is approximately 10-fold more free in rat brain than Comparison-1.

[2] = system: IL-1β-induced production of the cytokine IL-6; assay: IL-1β-induced IL-6 in primary human endothelial cells; format: cell-based; conditions: result in words

more free in rat brain than Comparison-1 ([1]; rat brain homogenate): approximately 10 fold
rat brain homogenate binding (free drug) ([1]; two runs, brain homogenate 1 brain /3 buffer, drug 5 µM, 5 µM): 1.06% and 1.43%
SMILES: CCO[C@H]1CC[C@H](n2cc(NC(=O)c3csc(-c4cn[nH]c4)n3)c(-c3ncccn3)n2)CC1 [Compound I-1, N-(1-((1r,4r)-4-ethoxycyclohexyl)-3-(pyrimidin-2-yl)-1H-pyrazol-4-yl)-2-(1H-pyrazol-4-yl)thiazole-4-carboxamide]
TLR7- induced TNF-α production (TLR7-induced TNF-α): blocks
TLR4-induced IL-23 production (TLR4-induced IL-23): blocks
TLR4-dependent cytokine production (TLR4-dependent): potent inhibitor
IL-1β-induced production of the cytokine IL-6 [2]: potently inhibits
